The text below walks through data of patent US20040086536A1, “Therapeutic agents and treatment kits for hypertrophic pyloric stenosis” (priority 2002, published 2004).

Structures are written as SMILES. Structures can show the parent of a compound that is named as a salt.

For assay [1], the system named is hypertrophic pyloric stenosis. The following applies: cited from earlier work.
The test system of assay [2] is hypertrophic pyloric stenosis. Nature of the assay: Treatment of infantile patients with hypertrophic pyloric stenosis (disappearance of vomiting, hospitalization). The note with it: atropine sulfate 0.1 mg/kg/day iv.
Procedure: In the present treating examples, a solution for intravenous injection of atropine sulfate was used as the anticholinergic agent and a nitroglycerin patch was used as the NO donor.
After confirming that the pH and electrolytes in the blood restore in the normal ranges in individual infantile patients, a daily dosage of atropine sulfate (0.1 mg/kg/day) was divided by the number of milk feeding and the divided dosage of atropine sulfate was administered intravenously 10 minutes before each milk feeding over 3 minutes or longer. Except in the cases where abnormally strong side effects were produced, the dosage amounts for subsequent intravenous injections were not changed principally. […] The minimum dosage amount is 0.04 mg/kg/day.
In parallel with the atropine sulfate intravenous injection, a nitroglycerin transdermal patch (Millisrol Tape (registered trademark)): 5 mg/patch: Nippon Kayaku Co., Ltd.; or Minitro Tape (registered trademark): 5 mg/patch: Nisshin-Kyorin Pharmaceutical Co., Ltd.) was used. […]
To prevent the occurrence of aspiration pneumonia induced by vomiting and the induction of contraction of gastric smooth muscles and pyloric sphincters, isotonic drinking solution was fed orally as the infantile patient wanted until the vomiting subsided. […] The body weight and the daily amount of milk intake were measured every day. […]

`CN1[C@@H]2CC[C@H]1C[C@@H](OC(=O)C(CO)c1ccccc1)C2` (some centres unmarked) [atropine sulfate (iv.), atropine sulfate]: the “time for which the spasm disappears after the administration” value in assay [1] (atropine sulfate therapy, contraction of the pyloric muscle often reappears afterward) is 20 to 30 min. In addition, the effectiveness of treatment entry in assay [1] (intravenous injection, needs long term hospitalization) is on record as “high”. The “effectiveness rate of treatment” value in assay [1] (oral administration) was “less than 50%”. In assay [2], the “Duration of vomiting (onset of action) after the initiation of the treatment” value is 5 ± 2 days and the duration of hospitalization turned out to be 9 ± 2 days.
